Measured values as given in ChEMBL document CHEMBL4270672, “Synthesis and Biological Evaluation of Fused Tricyclic Heterocycle Piperazine (Piperidine) Derivatives As Potential Multireceptor Atypical Antipsychotics” (J Med Chem, 2018).

Assays:
[1] = biological target: T1, 5-hydroxytryptamine receptor 1A (Rattus norvegicus, UniProt P19327)
T1 sequence (P19327 whole entry): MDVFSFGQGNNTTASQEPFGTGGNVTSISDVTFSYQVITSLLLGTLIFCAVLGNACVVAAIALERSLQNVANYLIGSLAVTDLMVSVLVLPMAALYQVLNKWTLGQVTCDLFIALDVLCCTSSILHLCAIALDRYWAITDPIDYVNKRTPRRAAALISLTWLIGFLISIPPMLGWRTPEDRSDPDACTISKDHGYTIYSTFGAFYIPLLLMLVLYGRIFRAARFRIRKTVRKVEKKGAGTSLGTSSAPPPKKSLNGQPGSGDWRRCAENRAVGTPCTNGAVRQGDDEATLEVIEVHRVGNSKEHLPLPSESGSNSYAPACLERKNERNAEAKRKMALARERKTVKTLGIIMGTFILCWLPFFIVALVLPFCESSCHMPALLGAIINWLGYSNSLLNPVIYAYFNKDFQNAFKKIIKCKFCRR

D(2) dopamine receptor = D(2) dopamine receptor (Rattus norvegicus, UniProt P61169)
Chain of D(2) dopamine receptor (P61169 whole entry): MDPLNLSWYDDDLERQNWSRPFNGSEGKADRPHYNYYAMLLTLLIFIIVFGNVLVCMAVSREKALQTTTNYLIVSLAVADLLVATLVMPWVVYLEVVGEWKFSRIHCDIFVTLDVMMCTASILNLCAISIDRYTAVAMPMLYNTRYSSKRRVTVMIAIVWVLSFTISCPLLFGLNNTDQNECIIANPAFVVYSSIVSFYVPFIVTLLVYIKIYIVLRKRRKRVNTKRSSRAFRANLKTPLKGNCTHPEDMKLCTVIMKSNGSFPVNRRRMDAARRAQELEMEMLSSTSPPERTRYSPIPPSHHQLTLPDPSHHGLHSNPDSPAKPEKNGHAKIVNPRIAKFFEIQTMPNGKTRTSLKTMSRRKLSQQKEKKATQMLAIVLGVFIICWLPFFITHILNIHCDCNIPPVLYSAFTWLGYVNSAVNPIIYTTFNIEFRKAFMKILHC

[2] = biological target: 5-hydroxytryptamine receptor 2A (Rattus norvegicus, UniProt P14842); test: Displacement of [3H]-ketanserine from serotonin 5-HT2A receptor in rat brain cortex homogenates incubated for 30 mins by liquid scintillation counting
Chain of 5-hydroxytryptamine receptor 2A (P14842 whole entry): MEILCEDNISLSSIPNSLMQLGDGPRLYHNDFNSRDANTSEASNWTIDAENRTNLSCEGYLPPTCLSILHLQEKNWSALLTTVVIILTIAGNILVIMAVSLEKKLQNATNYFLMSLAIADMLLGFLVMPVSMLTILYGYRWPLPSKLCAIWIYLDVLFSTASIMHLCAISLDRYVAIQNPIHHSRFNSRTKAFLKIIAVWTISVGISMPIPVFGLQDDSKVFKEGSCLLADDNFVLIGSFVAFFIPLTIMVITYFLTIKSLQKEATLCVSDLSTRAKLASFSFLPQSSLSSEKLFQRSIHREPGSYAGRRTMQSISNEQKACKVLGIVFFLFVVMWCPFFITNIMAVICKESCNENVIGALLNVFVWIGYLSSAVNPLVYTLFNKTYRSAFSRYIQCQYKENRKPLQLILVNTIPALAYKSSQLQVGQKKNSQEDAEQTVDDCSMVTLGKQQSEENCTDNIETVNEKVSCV

SMILES | Ki [1] [nM] | Ki (D(2) dopamine receptor) [nM] | Ki [2] [nM]
Cc1cccc(N2CCN(CCCC(=O)c3cc4c5c(c3)CCC(=O)N5CCC4)CC2)c1C | 169 | 185 | 58.9
O=C(CCCN1CCN(c2nsc3ccccc23)CC1)c1cc2c3c(c1)CCN3C(=O)CC2 | 31.8 | 49.9 | 50.3
O=C(CCCN1CCC(c2noc3cc(F)ccc23)CC1)c1cc2c3c(c1F)CCC(=O)N3CC2 | 25.3 | 19.2 | 17.9
O=C1CCc2cc(C(O)CCN3CCC(c4noc5cc(F)ccc45)CC3)cc3c2N1CCC3 (stereo not drawn) | 19.6 | 28.4 | 19.9
O=C(CCN1CCN(c2nsc3ccccc23)CC1)c1cc2c3c(c1)CCN3C(=O)CC2 | 54.6 | 88.8 | 68.4
O=C(CCN1CCC(c2nc3ccccc3s2)CC1)c1cc2c3c(c1)CCC(=O)N3CCC2 | 392 | 861 | 173
O=C1CCc2cc(C(O)CCCN3CCC(c4noc5cc(F)ccc45)CC3)cc3c2N1CCC3 (stereo not drawn) | 79.1 | 29.7 | 24.2
O=C(CCCN1CCC(c2noc3cc(F)ccc23)CC1)c1cc2c3c(c1F)CCN3C(=O)CC2 | 19.1 | 18.3 | 21.9
Cc1cccc(N2CCN(CCC(=O)c3cc4c5c(c3)CCN5C(=O)CC4)CC2)c1C | 84.6 | 189 | 175
CC1CC(=O)N2CCCc3cc(C(=O)CCCN4CCC(c5noc6cc(F)ccc56)CC4)cc1c32 (stereo not drawn) | 42.3 | 62.1 | 32.2
O=C1CCc2cc(CCCCCN3CCC(c4noc5cc(F)ccc45)CC3)cc3c2N1CC3 | 54 | 43.2 | 58.3
N#Cc1ccc(N2CCN(CCC(=O)c3cc4c5c(c3)CCN5C(=O)CC4)CC2)c(F)c1 | 474 | 574 | 388
O=C(CCN1CCN(c2ncccn2)CC1)c1cc2c3c(c1)CCC(=O)N3CCC2 | 1970 | > 2000 | 557
O=C(CCN1CCN(c2cccc(Cl)c2Cl)CC1)c1cc2c3c(c1)CCN3C(=O)CC2 | 81.6 | 188 | 92.5
O=C(CCCN1CCN(c2nsc3ccccc23)CC1)c1cc2c3c(c1)CCC(=O)N3CCC2 | 153 | 91.4 | 87.9
O=C1CCc2cc(C(O)CCN3CCC(c4noc5cc(F)ccc45)CC3)cc3c2N1CC3 (stereo not drawn) | 29.3 | 19.6 | 59.6
O=C1CCc2cc(CCCCN3CCC(c4noc5cc(F)ccc45)CC3)cc3c2N1CCC3 | 69.1 | 74.3 | 59.3
O=C(CCN1CCN(c2ccccc2)CC1)c1cc2c3c(c1)CCC(=O)N3CCC2 | 1860 | 1760 | 752
O=C1CCc2cc(CCCN3CCC(c4noc5cc(F)ccc45)CC3)cc3c2N1CC3 | 38.7 | 46.5 | 29.3
O=C(CCCN1CCN(c2cccc(Cl)c2Cl)CC1)c1cc2c3c(c1)CCC(=O)N3CCC2 | 149 | 283 | 79.8
O=C(CCN1CCN(c2ccccn2)CC1)c1cc2c3c(c1)CCC(=O)N3CCC2 | 1660 | 1660 | 675
O=C(CCCCN1CCC(c2noc3cc(F)ccc23)CC1)c1cc2c3c(c1)CCC(=O)N3CCC2 | 32.6 | 31.8 | 19.1
CC1CC(=O)N2CCCc3cc(CCCCN4CCC(c5noc6cc(F)ccc56)CC4)cc1c32 (stereo not drawn) | 82.9 | 85.8 | 83.4
O=C(CCN1CCC(c2noc3cc(F)ccc23)CC1)c1cc2c3c(c1)CCC(=O)N3CCC2 | 62.9 | 58.2 | 52.3
COc1ccccc1N1CCN(CCC(=O)c2cc3c4c(c2)CCC(=O)N4CCC3)CC1 | 965 | > 2000 | 178
O=C1CCc2cc(CCCCN3CCN(c4nsc5ccccc45)CC3)cc3c2N1CCC3 | 98 | 154 | 83.9
